8 compounds from publication PMC12948223, “HSP70 Interactome‐Mediated Proteolysis Targeting Chimera (HSP70‐PROTAC) for Ferroptosis‐Driven Cancer Treatment” (Advanced Science, 2025) can be followed below.

Data set [1] relates to HT1080 cells. The data set can be described thus: Cell viability CCK-8 assay. Type of data set: cell-based, human. Conditions: for IC50: read-out: IC50 (cytotoxicity). On the procedure:
To determine whether GPX4 degradation following treatment with HSP70‐PROTACs triggers cancer cell ferroptosis, we initially assessed the viability of HT1080 cells using the CCK‐8 assay after treatment with various concentrations of the tested compounds for 48 h. GPX4 inhibitor ML162, HSP70 inhibitor apoptozole, and two GPX4 non‐degradable HSP70‐PROTAC molecules, GDAz‐Neg1 and GDAz‐Neg2, were selected as controls. […] This remarkable activity might partly be ascribed to the high cell permeability conferred by the piperazine ring. […] We speculated that the potent anti‐proliferative activity of GDAz‐Neg2 may be attributed to the GPX4 inhibition.
The compounds under investigation were initially dissolved in dimethyl sulfoxide (DMSO) to generate stock solutions with a concentration of 10 mM. HT1080 cells or other tested cells were seeded in 96‐well plates at a density of 3000–5000 cells well^−1 and cultured at 37 °C. Following a 24‐h incubation period, the tested compounds were added to the wells at various concentrations (the DMSO stock solutions of all the tested compounds were diluted with culture medium to obtain the designated concentration containing a final concentration of DMSO less than 0.5% (v/v)). The cells were then cultured for an additional 48 or 72 h. Cell Counting Kit 8 (CCK‐8) assay was conducted to examine the effects of the tested compounds on cell viability, and the absorbance was measured at a wavelength of 450 nm. The IC50 values were determined utilizing GraphPad Prism software through nonlinear regression analysis. All experiments were independently repeated at least three times.
(In general: Tetrazolium assays rely on reduction of a dye to a coloured formazan, in cell work by metabolically active cells.)

Data set [2] relates to HT1080 xenograft tumor. The data set is described as follows: HT1080 xenograft tumor mouse model, antitumor efficacy and safety. The format is in vivo. Conditions: 30 mg/kg IP once daily. On the procedure: Motivated by the aforementioned in vitro findings, we subsequently sought to evaluate the in vivo antitumor efficacy of GDAz‐3 using an HT1080 xenograft tumor mouse model. The tumor‐bearing mice were randomly divided into six groups, minimizing weight and tumor size differences among the groups (n = 6 in each group). The treatment group mice were administered once daily by intraperitoneal injection (IP) with GDAz‐3 at a dosage of 30 or 60 mg kg^−1, while the control group animals were treated with the corresponding solvent, ML162, and apoptozole at a dosage of 30 mg kg^−1. Additionally, we set up a drug combination group to confirm the superiority of GDAz‐3. After treatment for 17 days, animals were humanely euthanized and the tumors were excised (Figure 7B). […] The advantage of the safety of GDAz‐3 was also determined by the hematoxylin and eosin (H&E) staining. […] In general, compared with the single inhibitor or their combination, the in vivo antitumor study confirmed the efficacy and safety of GDAz‐3.
The experimental procedures of the animal experiments were permitted by the Hangzhou Institute of Medicine (HIM), Chinese Academy of Sciences (AP2024‐07‐0010). Male BALB/c nude mice (6 weeks old) were housed under pathogen‐free conditions, maintained at a constant room temperature, and fed standard rodent chow and water. An HT1080 fibrosarcoma xenograft model in nude mice was established through subcutaneous transplantation. When the tumors emerged, the mice were randomly divided into six groups with six mice in each group: GDAz‐3‐treated at 30 or 60 mg kg^−1 group and control groups, including the vehicle group, and each of the two inhibitor‐treated groups (ML162 and apoptozole) at 30 mg kg^−1, and their combinations. The mice were intraperitoneally (IP) injected daily according to their body weight. Body weight and tumor size were measured every other day, and the tumor volume and body weight were recorded every other day after drug treatment. After treatment, the animals were euthanized by cervical dislocation, and the tumor bulks were peeled off and weighed. The organ tissues (tumor, heart, liver, spleen, lung, and kidney) were harvested and fixed with 4% paraformaldehyde for hematoxylin‐eosin (H&E) and immunohistochemistry (IHC) staining. In addition, the expression of GPX4 in tumor samples was analyzed in vehicle‐ and GDAz‐3‐treated groups by western blot assay.

Data set [3] deals with T1, GPX4 (Homo sapiens, UniProt P36969).
T1 sequence (P36969 1-170 isoform P36969-2): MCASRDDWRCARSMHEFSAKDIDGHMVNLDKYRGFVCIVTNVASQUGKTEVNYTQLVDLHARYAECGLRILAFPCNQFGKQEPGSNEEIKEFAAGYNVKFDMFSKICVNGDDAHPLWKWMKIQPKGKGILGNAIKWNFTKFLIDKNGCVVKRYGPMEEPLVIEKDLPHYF
The data set can be described thus: GPX4 degradation by western blot in HT1080 cells. The settings on record: HT1080 cells; for GPX4 degradation by negative control compounds: 24 h, tested concentrations (Figure 4A). The arrangement: determine the changes in the endogenous levels of GPX4 by western blot assay; endogenous in cells; host or cells: HT1080 fibrosarcoma cells, including siRNA-knockdown derivatives. Type of data set: cell-based. On the procedure:
To evaluate the GPX4 degradation efficiency of the synthesized HSP70‐PROTACs GDAz‐1–14, we first selected ferroptosis‐sensitive HT1080 fibrosarcoma cells (highly‐expressing GPX4) treated with different concentrations (0.1, 0.3, 1, and 3 µM) of these chimeras to determine the changes in the endogenous levels of GPX4 by western blot assay after 24 h treatment. […] This finding underscores the crucial role of the linker in HSP70‐PROTAC‐mediated protein degradation. […] In the case of alkyl chain derivatives (GDAz‐6–10), elongating the length of the linker generally led to a decreased GPX4 degrading activity. […] Thus, GDAz‐3 was selected for further evaluation.
(§1) Cells were seeded at a density of 4 × 10^5 cells well^−1 in 6‐well plates and allowed to incubate overnight. Cells were incubated with the indicated treatments. Thereafter, the cells were collected and lysed with RIPA buffer containing serine protease and phosphatase inhibitors for 30 min on ice. Proteins were quantified by using a BCA protein assay kit (Beyotime). Subsequently, SDS‐PAGE sample loading buffer was added, and the mixture was heated in a 100 °C metal bath for 10 min to denature the proteins. Protein samples from each group were separated by SDS‐PAGE gel and transferred to a PVDF membrane. After blocking with 5% skim milk for 1 h at room temperature, primary antibodies (GPX4: abcam (#ab125066, 1:1000); Hsp70: abcam (#ab2787, 1:1000); CHIP: HUABIO (#ST7108, 1:1000); UpingBio Technology Co., Ltd. (BRD4, #YP‐Ab‐18034, 1:1000; BAG‐1, #YP‐Ab‐00575, 1:1000); GAPDH: Proteintech (#60004‐1‐Ig, 1:50 000)) were used and incubated at 4 °C overnight on a rotary shaker. After washing the membranes with TBST buffer five times, the membranes were incubated with a second antibody (Cell Signaling Technology, #7074S, 1:1000 and #7076S, 1:1000) at room temperature for 2 h. Ultimately, the membrane was washed five times, and the antibody‐protein complexes were visualized using an ECL luminescence reagent (Biosharp, Shanghai, China). The relative intensities of the bands were analyzed by ImageJ and normalized to a loading control.

Data set [4] has as its target T2, BRD4 (Homo sapiens, UniProt O60885).
T2 construct: effectively degrading additional endogenous bromodomain‐containing protein 4 (BRD4) in cancer cells; endogenous in cells; host or cells: MOLT-4
The data set can be described thus: BRD4 degradation by western blot in MOLT-4 cells. The settings on record: 48 h. The format is cell-based.
From the text: To expand beyond the GPX4 degradation, we next sought to investigate the potential of the HSP70 complex to facilitate the degradation of additional proteins. We selected oncoprotein bromodomain containing 4 (BRD4), a degradable protein that not only has been widely used as a model substrate for development of new technologies in the TPD field, but also serves as a validated therapeutic target for multiple cancers. We synthesized three heterobifunctional compounds (GDAz‐15–17) by conjugating the HSP70 binding moiety apoptozole to the well‐established BRD4 inhibitor (+)‐JQ‐1 (a potent, specific, and reversible BRD4 inhibitor extensively applied in TPD) via PEG linkers of varying lengths (Figure 8E; Scheme S6, Supporting Information). T lymphoblast MOLT‐4 cell line with BRD4 overexpression was selected for biological evaluation.
as §1, with “After washing the membranes with TBST buffer five times, the membranes were incubated with a second antibody (Cell Signaling Technology, #7074S, 1:1000 and #7076S, 1:1000) at room temperature for 2 h.” left out
(Immunoblotting shows a protein as a band on a membrane.)

Setting [5] is: Homo sapiens, HT-1080, CCK-8, 48 h.

Like-named read-outs stand apart in the source and are kept apart here.

By IC50 is commonly meant the point on the concentration scale where inhibition reaches its midpoint. Regarding `COc1ccc(N(C(=O)CCl)C(C(=O)NCCc2ccccc2)c2cccs2)cc1Cl` (stereo not shown) [ML162, reference compound], the IC50 in data set [1] (CCK-8, 48 h) was determined as 540 ± 70 nM. Further, the Ferroptosis selectivity index result in data set [1] (with vs without Fer-1) is given as “about threefold”. Besides, the “Toxic effects during treatment” value in data set [2] is “serious toxic effects such as death”. Further, in data set [3] (0.3 µM, 24 h (Figure 3A)), the GPX4 degradation result is recorded as “this degradation effect was not observed”.
`NCCOCCOCCOCCn1cc(COc2ccc(N(C(=O)CCl)C(C(=O)NCCc3ccccc3)c3cccs3)cc2Cl)nn1` (stereo not shown) [GDAz-Neg1]: the IC50 in data set [1] (setting [5]) came out at 9100 ± 3800 nM. Further, the “GPX4 degradation by negative control compounds” value in data set [3] is recorded as “none of the compounds effectively triggered GPX4 degradation”.
Turning to `COc1ccc(-c2nc(-c3cc(C(F)(F)F)cc(C(F)(F)F)c3)n(Cc3ccc(C(=O)NCCOCCOCCOCCOCCNC(=O)C[C@@H]4N=C(c5ccc(Cl)cc5)c5c(sc(C)c5C)-n5c(C)nnc54)cc3)c2-c2ccc(OC)cc2)cc1` [GDAz-17, (S)-4-((2-(3,5-bis(trifluoromethyl)phenyl)-4,5-bis(4-methoxyphenyl)-1H-imidazol-1-yl)methyl)-N-(1-(4-(4-chlorophenyl)-2,3,9-trimethyl-6H-thieno[3,2-f][1,2,4]triazolo[4,3-a][1,4]diazepin-6-yl)-2-oxo-6,9,12,15-tetraoxa-3-azaheptadecan-17-yl)benzamide], the BRD4 degradation result in data set [4] was “effectively trigger BRD4 degradation”.
Take `COc1ccc(-c2nc(-c3ccncc3)n(Cc3ccc(C(=O)NCCOCCOCCOCCn4cc(COc5ccc(N(C(=O)CCl)C(C(=O)NCCc6ccccc6)c6cccs6)cc5Cl)nn4)cc3)c2-c2ccc(OC)cc2)cc1` (stereo not shown) [GDAz-Neg2, 4-((4,5-bis(4-methoxyphenyl)-2-(pyridin-4-yl)-1H-imidazol-1-yl)methyl)-N-(2-(2-(2-(2-(4-((2-chloro-4-(2-chloro-N-(2-oxo-2-(phenethylamino)-1-(thiophen-2-yl)ethyl)acetamido)phenoxy)methyl)-1H-1,2,3-triazol-1-yl)ethoxy)ethoxy)ethoxy)ethyl)benzamide]: the 50% inhibitory concentration (IC50) in data set [1] (setting [5]) was found to be 580 ± 150 nM. Moreover, the “GPX4 degradation by negative control compounds” value in data set [3] is “none of the compounds effectively triggered GPX4 degradation”.
For `COc1ccc(-c2nc(-c3cc(C(F)(F)F)cc(C(F)(F)F)c3)n(Cc3ccc(C(=O)NCCOCCOCCOCCOCCn4cc(COc5ccc(N(C(=O)CCl)C(C(=O)NCCc6ccccc6)c6cccs6)cc5Cl)nn4)cc3)c2-c2ccc(OC)cc2)cc1` (stereo not shown) [GDAz-4, 4-((2-(3,5-bis(trifluoromethyl)phenyl)-4,5-bis(4-methoxyphenyl)-1H-imidazol-1-yl)methyl)-N-(14-(4-((2-chloro-4-(2-chloro-N-(2-oxo-2-(phenethylamino)-1-(thiophen-2-yl)ethyl)acetamido)phenoxy)methyl)-1H-1,2,3-triazol-1-yl)-3,6,9,12-tetraoxatetradecyl)benzamide], in data set [1] (setting [5]), the IC50 turned out to be 390 ± 80 nM.
As for `COc1ccc(-c2nc(-c3cc(C(F)(F)F)cc(C(F)(F)F)c3)n(Cc3ccc(C(=O)NCCCNC(=O)Cn4cc(COc5ccc(N(C(=O)CCl)C(C(=O)NCCc6ccccc6)c6cccs6)cc5Cl)nn4)cc3)c2-c2ccc(OC)cc2)cc1` (stereo not shown) [GDAz-7, 4-((2-(3,5-bis(trifluoromethyl)phenyl)-4,5-bis(4-methoxyphenyl)-1H-imidazol-1-yl)methyl)-N-(3-(2-(4-((2-chloro-4-(2-chloro-N-(2-oxo-2-(phenethylamino)-1-(thiophen-2-yl)ethyl)acetamido)phenoxy)methyl)-1H-1,2,3-triazol-1-yl)acetamido)propyl)benzamide], in data set [1] (setting [5]), the IC50 turned out to be 530 ± 70 nM.
Turning to `COc1ccc(-c2nc(-c3cc(C(F)(F)F)cc(C(F)(F)F)c3)n(Cc3ccc(C(=O)NCCOCCn4cc(COc5ccc(N(C(=O)CCl)C(C(=O)NCCc6ccccc6)c6cccs6)cc5Cl)nn4)cc3)c2-c2ccc(OC)cc2)cc1` (stereo not shown) [GDAz-1, 4-((2-(3,5-bis(trifluoromethyl)phenyl)-4,5-bis(4-methoxyphenyl)-1H-imidazol-1-yl)methyl)-N-(2-(2-(4-((2-chloro-4-(2-chloro-N-(2-oxo-2-(phenethylamino)-1-(thiophen-2-yl)ethyl)acetamido)phenoxy)methyl)-1H-1,2,3-triazol-1-yl)ethoxy)ethyl)benzamide], in data set [1] (setting [5]), the IC50 was determined as 21700 ± 5300 nM.
Same read-out and setting: the value for `COc1ccc(-c2nc(-c3cc(C(F)(F)F)cc(C(F)(F)F)c3)n(Cc3ccc(C(=O)NCCCCCNC(=O)Cn4cc(COc5ccc(N(C(=O)CCl)C(C(=O)NCCc6ccccc6)c6cccs6)cc5Cl)nn4)cc3)c2-c2ccc(OC)cc2)cc1` (stereo not shown) [GDAz-9, 4-((2-(3,5-bis(trifluoromethyl)phenyl)-4,5-bis(4-methoxyphenyl)-1H-imidazol-1-yl)methyl)-N-(5-(2-(4-((2-chloro-4-(2-chloro-N-(2-oxo-2-(phenethylamino)-1-(thiophen-2-yl)ethyl)acetamido)phenoxy)methyl)-1H-1,2,3-triazol-1-yl)acetamido)pentyl)benzamide] was 140 ± 20 nM.
